Reference: patent US6603044B1, “Phthalamide derivatives, or salt thereof agrohorticultural insecticide, and method for using the same” (Nihon Nohyaku Co., Ltd., priority 1998, dated 2003)

Tests used:
[1] = system: Diamond Back Moth (Plutella xylostella); assay: Insecticidal effect on diamond back moth (Test Example 1); format: in vivo; details: 50 ppm; Chinese cabbage seedling with deposited eggs immersed about 30 seconds; 25° C.; six days after the immersion
Text: Insecticidal Effect on Diamond Back Moth (Plutella xylostella)
Adult diamondback moths were released and allowed to oviposit on a Chinese cabbage seedling. Two days after the release, the seedling having the eggs deposited thereon was immersed for about 30 seconds in a liquid chemical prepared by diluting a preparation containing each compound listed in Table 1, 2 or 3 as an active ingredient to adjust the concentration to 50 ppm. After air-dryness, it was allowed to stand in a room thermostatted at 25° C. Six days after the immersion, the hatched insects were counted. The mortality was calculated according to the following equation and the insecticidal effect was judged according to the criterion shown below. The test was carried out with triplicate groups of 10 insects.

[2] = system: Smaller tea Tortrix (Adoxophyes sp.); assay: Insecticidal effect on smaller tea tortrix (Test Example 3); format: in vivo; details: 50 ppm; tea leaf immersed 30 seconds; larvae; 25° C., humidity 70%; eight days after the inoculation
Protocol: Insecticidal Effect on Smaller tea Tortrix (Adoxophyes sp.)
A leaf of tea tree was immersed for 30 seconds in a liquid chemical containing each compound listed in Table 1, 2 or 3 as an active ingredient to adjust the concentration to 50 ppm. After air-dryness, the leaf was transferred to a plastic dish with a diameter of 9 cm and inoculated with larval smaller tea tortrix. Then, the leaf was allowed to stand in a room thermostatted at 25° C. at a humidity of 70%. Eight days after the inoculation, the dead and alive were counted, and the insecticidal effect was judged according to the same criterion as mentioned in Test Example 1. The test was carried out with triplicate groups of 10 insects.

Structure (SMILES) | Test Example 1 insecticidal effect (mortality) [1] | Test Example 3 insecticidal effect (mortality) [2]
CSCC(NC(=O)c1c(I)cccc1C(=O)Nc1ccc(C(F)(F)C(F)(F)F)cc1C)c1ccccc1 (stereo not drawn) [compound 90] | A (100) | A (100)
CCSCCNC(=O)c1c(I)cccc1C(=O)Nc1ccc(C(F)(F)C(F)(F)F)cc1C [compound 72] | A (100) | A (100)
CCCN(CCSC)C(=O)c1c(F)cccc1C(=O)Nc1ccc(C(F)(C(F)(F)F)C(F)(F)F)cc1C [2-3] | A (100) | A (100)
CCN(CCC[S+](C)[O-])C(=O)c1c(F)cccc1C(=O)Nc1ccc(C(F)(C(F)(F)F)C(F)(F)F)cc1C (stereo not drawn) [2-13] | A (100) | A (100)
Cc1cc(C(F)(C(F)(F)F)C(F)(F)F)ccc1NC(=O)c1cccc(I)c1C(=O)NCCSC(C)C [compound 60] | A (100) | A (100)
CSCCC(C)NC(=O)c1c(I)cccc1C(=O)Nc1ccc(OC(F)(F)F)cc1C (stereo not drawn) [compound 164] | A (100) | A (100)
CSC1CCCC1NC(=O)c1c(I)cccc1C(=O)Nc1ccc(C(F)(C(F)(F)F)C(F)(F)F)cc1C (stereo not drawn) [compound 329] | A (100) | A (100)
CSCC(NC(=O)c1c(I)cccc1C(=O)Nc1ccc(C(F)(C(F)(F)F)C(F)(F)F)cc1C)c1ccccc1 (stereo not drawn) [compound 89] | A (100) | A (100)
CSCCCNC(=O)c1c(I)cccc1C(=O)Nc1ccc(C(F)(C(F)(F)F)C(F)(F)F)cc1C [compound 57] | A (100) | A (100)
CSCC(C)(C)NC(=O)c1c(I)cccc1C(=O)Nc1ccc(Oc2ccc(Cl)cc2)cc1C [compound 473] | A (100) | B (99-90)
CSCC(C)NC(=O)c1c(C(=O)Nc2ccc(C(F)(F)C(F)(F)F)cc2C)cccc1[N+](=O)[O-] (stereo not drawn) [compound 105] | A (100) | A (100)
Cc1cc(C(F)(C(F)(F)F)C(F)(F)F)ccc1NC(=O)c1ccc2ccccc2c1C(=O)NC(C)C[S+](C)[O-] (stereo not drawn) [compound 334] | A (100) | A (100)
CSCC(C)NC(=O)c1ccccc1C(=O)Nc1ccc(C(F)(C(F)(F)F)C(F)(F)F)cc1C (stereo not drawn) [Compound No. 16] | A (100) | A (100)
Cc1cc(C(F)(C(F)(F)F)C(F)(F)F)ccc1NC(=O)c1cccc(I)c1C(=O)NC(C)CSC(C)(C)C (stereo not drawn) [compound 117] | A (100) | A (100)
CSCC(C)NC(=O)c1c(C(=O)Nc2ccc(OC(F)(F)F)cc2C)ccc(F)c1F (stereo not drawn) [compound 44] | A (100) | A (100)
CC[S+]([O-])CCCC(C)NC(=O)c1c(I)cccc1C(=O)Nc1ccc(C(F)(C(F)(F)F)C(F)(F)F)cc1C (stereo not drawn) [compound 202] | A (100) | A (100)
CSC1CCCCC1NC(=O)c1c(I)cccc1C(=O)Nc1ccc(C(F)(C(F)(F)F)C(F)(F)F)cc1C (stereo not drawn) [compound 273] | A (100) | C (89-80)
CSCC(C)NC(=O)c1cc(Cl)ccc1C(=O)Nc1ccc(C(F)(F)C(F)(F)F)cc1C (stereo not drawn) [compound 43] | A (100) | A (100)
CSCC(C)NC(=O)c1cc2ccccc2cc1C(=O)Nc1ccc(C(F)(C(F)(F)F)C(F)(F)F)cc1C (stereo not drawn) [compound 332] | A (100) | A (100)

Structure (SMILES) | Test Example 1 insecticidal effect (mortality) [1] | Test Example 3 insecticidal effect (mortality) [2]
CCS(=O)(=O)CCCC(C)NC(=O)c1c(Br)cccc1C(=O)Nc1ccc(C(F)(C(F)(F)F)C(F)(F)F)cc1C (stereo not drawn) [compound 215] | A (100) | A (100)
Cc1cc(C(F)(C(F)(F)F)C(F)(F)F)ccc1NC(=O)c1cccc(I)c1C(=O)NC(C[S+](C)[O-])c1ccccc1 (stereo not drawn) [compound 137] | A (100) | A (100)
Cc1cc(C(F)(F)C(F)(F)F)ccc1NC(=O)c1cccc(I)c1C(=O)NCCSC(C)C [compound 59] | A (100) | A (100)
Cc1nnc(SCC(C)NC(=O)c2c(I)cccc2C(=O)Nc2ccc(C(F)(C(F)(F)F)C(F)(F)F)cc2C)s1 (stereo not drawn) [compound 353] | A (100) | A (100)
CSCNC(=O)c1ccccc1C(=O)Nc1ccc(C(F)(C(F)(F)F)C(F)(F)F)cc1C [compound 298] | A (100) | A (100)
CSCC(C)(C)NC(=O)c1c(I)cccc1C(=O)Nc1ccc(Oc2cccc(C#N)c2)cc1C [compound 475] | A (100) | A (100)
Cc1cc(C(F)(C(F)(F)F)C(F)(F)F)ccc1NC(=O)c1cccc([N+](=O)[O-])c1C(=O)NC(C)(C)C[S+](C)[O-] (stereo not drawn) [compound 327] | A (100) | A (100)
CCS(=O)(=O)CC(C)(C)NC(=O)c1c(I)cccc1C(=O)Nc1ccc(OC(F)(F)F)cc1C [compound 251] | – | A (100)
CSCC(C)NC(=O)c1ccc(Cl)c(Cl)c1C(=O)Nc1ccc(C(F)(C(F)(F)F)C(F)(F)F)cc1C (stereo not drawn) [compound 42] | A (100) | –
Cc1cc(OC(F)(F)F)ccc1NC(=O)c1cccc(I)c1C(=O)NCCSC(C)C [compound 58] | A (100) | –
Cc1cc(C(F)(C(F)(F)F)C(F)(F)F)ccc1NC(=O)c1cccc(I)c1C(=O)NC1(CS(C)(=O)=O)CCCC1 [compound 447] | A (100) | –
CSCCCC(C)NC(=O)c1cccc(Cl)c1C(=O)Nc1ccc(C(F)(F)C(F)(F)F)cc1C (stereo not drawn) [compound 151] | A (100) | –
C[S+]([O-])CC(C)(C)NC(=O)c1c(C(=O)Nc2ccc(OC(F)(F)F)cc2Cl)cccc1[N+](=O)[O-] (stereo not drawn) [compound 377] | A (100) | –
CSCC(C)NC(=O)c1c(C(=O)Nc2ccc(OC(F)(F)F)cc2C)ccc(F)c1Cl (stereo not drawn) [compound 147] | A (100) | –
CSCC(C)NC(=O)c1c(SC(F)(F)F)cccc1C(=O)Nc1ccc(C(F)(F)C(F)(F)F)cc1C (stereo not drawn) [compound 129] | A (100) | –
CSCC(C)NC(=O)c1c(I)cccc1C(=O)Nc1ccc(Cl)cc1C (stereo not drawn) [compound 9] | A (100) | –
CSCCNC(=O)c1c(I)cccc1C(=O)Nc1ccc(OC(F)(F)F)cc1C [compound 52] | A (100) | –
CCC(CSC)NC(=O)c1c(I)cccc1C(=O)Nc1ccc(C(F)(C(F)(F)F)C(F)(F)F)cc1C (stereo not drawn) [compound 120] | A (100) | –
